Data: patent publication US20160193240A1, “Ulmoside-A: Useful For Prevention Or Cure Of Metabolic Diseases” (COUNCIL OF SCIENTIFIC & INDUSTRIAL RESEARCH, priority 2013, published 2016)

Legend:
[1] = system: wistar rats; assay: Dexamethasone induced loss of body weight and death in rats; conditions: Dex alone (200 μg/kg IP), 2 weeks
Experimental: All animal experiments were conducted in accordance with current legislation on animal experiments [Institutional Animal Ethical Committee (IAEC)] at C.D.R.I. In all animal experiments, rats were individually housed at 21° C., in 12-h light:12-h dark cycles. All animals had access to normal chow diet and water ad libitum.
(§1) Food intake was measured daily and the rats were weighed each week. The rats were fasted overnight (O/N) on day 14th and on day 15th oral glucose tolerance test was performed. Following oral glucose tolerance test (OGTT), rats were kept with food and water ad libitum for one day. On day 16th, rats were fasted again O/N and then euthanized. At autopsy, from 5 animals/group, tissues were collected and snap frozen in liquid nitrogen. Blood was collected from cardiac punctures. Plasma was separated from whole blood by centrifugation at 3000 rpm for 20 min immediately after collection of blood and stored at −80° C. until further analysis. […] (quadriceps) skeletal muscles were processed for RNA and protein extraction, followed by quantitative real-time PCR (QRT-PCR) analysis. Two animals from each group were used for photography post autopsy.

[2] = system: wistar rats; assay: Dexamethasone-mediated reduction of food intake in rats; assay type: in vivo, rat; conditions: Dex alone 200 μg/kg IP
Experimental: Six to eight week old wistar rats (n=6 per group) were housed separately and treated as indicated in the example. Daily food intake was measured and plotted. […] Data represents mean+/−SEM.
(§2) Blood was collected from cardiac punctures.
Food intake was measured every alternate day by giving measured food to each cage in evening (5.00 PM) and collection of residual food in next morning (9.00 AM) and measuring it. The residual food was subtracted from the food given and plotted.

[3] = system: wistar rats; assay: Dexamethasone-mediated reduction in serum osteocalcin in rats (ELISA); assay type: in vivo, rat; conditions: Dex alone, 14 days
Experimental: as §1

[4] = system: wistar rats; assay: Dexamethasone-mediated imbalance in serum Na, K level in rats; assay type: in vivo, rat; conditions: Dex + Vehicle, 14 days
Experimental: Food intake was measured daily and the rats were weighed each week. The rats were fasted overnight (O/N) on day 14th and on day 15th oral glucose tolerance test was performed. Following oral glucose tolerance test (OGTT), rats were kept with food and water ad libitum for one day. On day 16th, rats were fasted again O/N and then euthanized. At autopsy, from 5 animals/group, tissues were collected and snap frozen in liquid nitrogen. Blood was collected from cardiac punctures. Plasma was separated from whole blood by centrifugation at 3000 rpm for 20 min immediately after collection of blood and stored at −80° C. until further analysis. Forelimb (quadriceps) skeletal muscles were processed for RNA and protein extraction, followed by quantitative real-time PCR (QRT-PCR) analysis. Two animals from each group were used for photography post autopsy.

[5] = system: wistar rats; assay: Dexamethasone-induced skeletal muscle atrophy in rats (limb appearance, QRT-PCR of PGC-1α and atrogenes); assay type: in vivo, rat; conditions: Dex alone
Experimental: Following 15 d indicated treatment of rats, the skeletal muscle (pulled hind limb) were collected and RNA was extracted from them and QRT-PCR was performed in a Roche lightcycler 480 machine. Data represents mean+/−SEM from six animals done in triplicates. “a” statistical analysis between Vehicle and Dexamethasone-treated groups, “b”, statistical analysis between dex-treated and dex+ ULMA groups. P<0.05, as determined by student's t-test, n=6.
as §2
RNA was isolated from skeletal muscles using Trizol (according to manufacturers' protocol) and reverse transcribed as described above and either PGC-1α expression or muscle atrophy related genes (atrogenes) expression were examined.

[6] = system: GAL-PPARα; assay: PPARα activation assay (GAL-PPARα / GAL4-Luc reporter) in HEK293 cells expressing endogenous AdipoR1; assay type: cell-based, human; conditions: 100 pM GW-7647 alone, 6 hours, HEK293
Experimental: A. ULMA enhances PPARα ligand activity; HEK293 cells were seeded on to 24 well plates and after 24 h, transfected with 100 ng of GAL-PPARα and 100 ng GAL4-Luc along with 100 ng eGFPC1 (Clontech) plasmids using lipofectamine LTX (Invitrogen) according to manufacturer's instructions. 24 h after transfection, cells were treated with or without 100 pM GW-7647 alone or in combination with 100 nM ULMA or 1 μg/ml globular adiponectin (gAd) for 6 h. Following which, the cells were lysed and GFP fluorescence and firefly luciferase activities were measured. Luciferase activity was normalized with GFP fluorescence and plotted as fold activity over vehicle (0.1% DMSO) treated control. Data shown in mean±SEM of three independent experiments performed in duplicates. *p<0.05 as determined by two tailed unpaired student's t-test.
The potential of ULMA to activate adiponectin receptor signaling was evaluated using a PPARα activation assay. […] 24 hours following plating, these cells were transfected with 100 ng of GAL-PPARα (PPARα cDNA fused with GAL4 DNA binding domain) and 100 ng GAL4 upstream activation sequence driven luciferase (GAL4-Luc) reporter gene that is capable of binding to any protein fused to GAL4-DNA binding domain (in this case GAL-PPARα) and 100 ng Green fluorescence expressing plasmid (GFP) that was used as an internal control, using lipofectamine LTX transfection reagent (Invitrogen) according to manufacturers' instructions. […] The cells were then lysed and luciferase activity was measured in a Promega GloMax luminometer using steady Glo luciferase assay kit (Promega) according to manufacturers' instructions; and GFP fluorescence was measured in a fluorimeter (Polarstar Galaxy, BMG Labtech). […]

Row | Structure (SMILES) | Survival/group (%) [1] [%] | food intake [2] | Osteocalcin [3] [ng/mL] | K [4] [mM] | appearance of denuded forelimb and hindlimb [5] | mRNA levels of atrogenes (Atrogin-1/MAFbx, MuRF1, Cathepsin L, Glul) in skeletal muscle [5] | increase of luciferase activity over vehicle-treated controls [6] [folds]
1 | C[C@@H]1C[C@H]2[C@@H]3CCC4=CC(=O)C=C[C@]4(C)[C@@]3(F)[C@@H](O)C[C@]2(C)[C@@]1(O)C(=O)CO [Dex, Dexamethasone, reference compound] | 46.7 | robust loss in food-intake | 263.5 ± 6.4 | 3.47 ± 0.13 | severe abnormality in the limbs | robustly induced | 
2 | CC(C)(Sc1ccc(CCN(CCCCC2CCCCC2)C(=O)NC2CCCCC2)cc1)C(=O)O [GW-7647, reference compound] |  |  |  |  |  |  | 2
